Each structure is given as a SMILES string.

Experimental findings from US20230322761A1, “DEGRADATION OF BRUTON'S TYROSINE KINASE (BTK) BY CONJUGATION OF BTK INHIBITORS WITH E3 LIGASE LIGAND AND METHODS OF USE” (BEIGENE, LTD., priority 2020, published 2023) are described below.

T1 sequence (Q06187 whole entry): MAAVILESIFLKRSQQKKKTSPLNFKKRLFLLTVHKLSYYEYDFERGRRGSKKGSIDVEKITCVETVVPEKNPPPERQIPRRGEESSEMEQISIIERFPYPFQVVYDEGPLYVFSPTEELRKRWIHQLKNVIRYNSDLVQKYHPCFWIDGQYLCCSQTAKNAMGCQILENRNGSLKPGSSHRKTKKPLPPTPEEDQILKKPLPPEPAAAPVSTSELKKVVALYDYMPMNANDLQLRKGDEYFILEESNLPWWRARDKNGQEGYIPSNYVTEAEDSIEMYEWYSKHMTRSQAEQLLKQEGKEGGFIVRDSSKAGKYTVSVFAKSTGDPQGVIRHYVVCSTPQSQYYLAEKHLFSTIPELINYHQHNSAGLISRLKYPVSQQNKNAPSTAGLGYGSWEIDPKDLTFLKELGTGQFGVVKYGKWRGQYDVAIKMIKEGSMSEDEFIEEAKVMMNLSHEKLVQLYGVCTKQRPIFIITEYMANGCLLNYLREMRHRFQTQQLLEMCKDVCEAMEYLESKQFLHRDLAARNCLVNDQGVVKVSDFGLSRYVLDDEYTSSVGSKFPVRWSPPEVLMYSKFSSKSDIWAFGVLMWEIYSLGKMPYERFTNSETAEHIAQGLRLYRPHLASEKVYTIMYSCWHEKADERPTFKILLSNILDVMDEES

The first assay addresses T1, BTK (Homo sapiens, UniProt Q06187).
T1 construct: endogenous in cells; host or cells: TMD-8 cells
Description: BTK degradation in TMD-8 cells, HTRF assay after 6 h treatment. In kind it is cell-based. The conditions noted are these: IC50 (DC50) of BTK degradation. The method in brief:
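TMD-8 cells treated for 6 h with 8 compound doses in 6-fold dilution steps from a 1 mM 500× DMSO stock (0.2% DMSO), then lysed 30 min at room temperature. BTK in lysate detected by HTRF (665/620 nm) after overnight antibody incubation; DC50 from four-parameter curve fit.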
For orientation: TR-FRET usually uses a lanthanide donor and a delayed reading to cut background.
Usually DC50 stands for the concentration at which degradation of the target reaches its halfway point. A high value points to a less potent degrader. Molecule `Cc1cc(-c2n[nH]c3ncc(-c4ccc(N5CCN(CCc6ccc(C7CCC(=O)NC7=O)cc6)CC5)cc4)cc23)ccc1[C@@H](C)NC(=O)c1noc(C(C)(C)C)n1` (stereo partly drawn) [Example 35, 5-(tert-butyl)-N-((1R)-1-(4-(5-(4-(4-(4-(2,6-dioxopiperidin-3-yl)phenethyl)piperazin-1-yl)phenyl)-1H-pyrazolo[3,4-b]pyridin-3-yl)-2-methylphenyl)ethyl)-1,2,4-oxadiazole-3-carboxamide] had a DC50 of 1.9 nM. On the same count and under the same terms, next, `Cc1cc(-c2n[nH]c3ncc(-c4ccc(N5CCN(CCc6ccc(C7CCC(=O)NC7=O)c(F)c6)CC5)cc4)cc23)ccc1[C@@H](C)NC(=O)c1noc(C(C)(C)C)n1` (stereo partly drawn) [Example 36, 5-(tert-butyl)-N-((1R)-1-(4-(5-(4-(4-(4-(2,6-dioxopiperidin-3-yl)-3-fluorophenethyl)piperazin-1-yl)phenyl)-1H-pyrazolo[3,4-b]pyridin-3-yl)-2-methylphenyl)ethyl)-1,2,4-oxadiazole-3-carboxamide]: 3 nM. The same measure, in the same setting: in the case of `Cc1cc(-c2n[nH]c3ncc(-c4ccc(N5CCN(CC6CCN(c7ccc(N8CCC(=O)NC8=O)cc7)CC6)CC5)cc4)cc23)ccc1[C@@H](C)NC(=O)c1noc(C(C)(C)C)n1` [Example 37, (R)-5-(tert-butyl)-N-(1-(4-(5-(4-(4-((1-(4-(2,4-dioxotetrahydropyrimidin-1(2H)-yl)phenyl)piperidin-4-yl)methyl)piperazin-1-yl)phenyl)-1H-pyrazolo[3,4-b]pyridin-3-yl)-2-methylphenyl)ethyl)-1,2,4-oxadiazole-3-carboxamide] it was 2.52 nM; in that of `Cc1cc(-c2n[nH]c3ncc(-c4ccc(N5CCN(CC6CCN(c7ccc(N8CCC(=O)NC8=O)c(F)c7)CC6)CC5)cc4)cc23)ccc1[C@@H](C)NC(=O)c1noc(C(C)(C)C)n1` [Example 38, (R)-5-(tert-butyl)-N-(1-(4-(5-(4-(4-((1-(4-(2,4-dioxotetrahydropyrimidin-1(2H)-yl)-3-fluorophenyl)piperidin-4-yl)methyl)piperazin-1-yl)phenyl)-1H-pyrazolo[3,4-b]pyridin-3-yl)-2-methylphenyl)ethyl)-1,2,4-oxadiazole-3-carboxamide], 3.2 nM.

Regarding `Cc1cc(-c2n[nH]c3ncc(-c4ccc(N5CCN(CC6CCN(c7ccc(N8CCC(=O)NC8=O)c(C)c7)CC6)CC5)cc4)cc23)ccc1[C@@H](C)NC(=O)c1noc(C(C)(C)C)n1` [Example 39, (R)-5-(tert-butyl)-N-(1-(4-(5-(4-(4-((1-(4-(2,4-dioxotetrahydropyrimidin-1(2H)-yl)-3-methylphenyl)piperidin-4-yl)methyl)piperazin-1-yl)phenyl)-1H-pyrazolo[3,4-b]pyridin-3-yl)-2-methylphenyl)ethyl)-1,2,4-oxadiazole-3-carboxamide], it took 2.6 nM to reach half-maximal degradation (DC50). Molecule `Cc1cc(CCN2CCN(c3ccc(-c4cnc5[nH]nc(-c6ccc([C@@H](C)NC(=O)c7noc(C(C)(C)C)n7)c(C)c6)c5c4)cc3)CC2)ccc1C1CCC(=O)NC1=O` (stereo partly drawn) [Example 40, 5-(tert-butyl)-N-((1R)-1-(4-(5-(4-(4-(4-(2,6-dioxopiperidin-3-yl)-3-methylphenethyl)piperazin-1-yl)phenyl)-1H-pyrazolo[3,4-b]pyridin-3-yl)-2-methylphenyl)ethyl)-1,2,4-oxadiazole-3-carboxamide] returned a DC50 of 7.32 nM. Compared with the last molecule, the DC50 is about 2.8-fold higher. The same measure, in the same setting: next, `Cc1cc(-c2n[nH]c3ncc(-c4ccc(N5CCN(CC6CCN(c7ccc(N8CCC(=O)NC8=O)cc7)CC6)CC5)cc4)cc23)ccc1CNC(=O)c1noc(C(C)(C)C(F)(F)F)n1` [Example 41, N-(4-(5-(4-(4-((1-(4-(2,4-dioxotetrahydropyrimidin-1(2H)-yl)phenyl)piperidin-4-yl)methyl)piperazin-1-yl)phenyl)-1H-pyrazolo[3,4-b]pyridin-3-yl)-2-methylbenzyl)-5-(1,1,1-trifluoro-2-methylpropan-2-yl)-1,2,4-oxadiazole-3-carboxamide]: 7.05 nM.

`Cc1cc(-c2n[nH]c3ncc(-c4ccc(N5CCN(CC6CCN(c7ccc(N8CCC(=O)NC8=O)cc7)CC6)CC5)cc4)cc23)ccc1CNC(=O)c1noc(C2(C(F)(F)F)CC2)n1` [Example 42, N-(4-(5-(4-(4-((1-(4-(2,4-dioxotetrahydropyrimidin-1(2H)-yl)phenyl)piperidin-4-yl)methyl)piperazin-1-yl)phenyl)-1H-pyrazolo[3,4-b]pyridin-3-yl)-2-methylbenzyl)-5-(1-(trifluoromethyl)cyclopropyl)-1,2,4-oxadiazole-3-carboxamide]: the DC50 worked out at 22.8 nM. Still for that read-out and setting: in the case of `Cc1c([C@@H](C)NC(=O)c2noc(C(C)(C)C)n2)ccc(-c2n[nH]c3ncc(-c4ccc(N5CCN(CC6CCN(c7ccc(N8CCC(=O)NC8=O)cc7)CC6)CC5)cc4)cc23)c1F` [Example 43, (R)-5-(tert-butyl)-N-(1-(4-(5-(4-(4-((1-(4-(2,4-dioxotetrahydropyrimidin-1(2H)-yl)phenyl)piperidin-4-yl)methyl)piperazin-1-yl)phenyl)-1H-pyrazolo[3,4-b]pyridin-3-yl)-3-fluoro-2-methylphenyl)ethyl)-1,2,4-oxadiazole-3-carboxamide] it was 3.44 nM. Still for that read-out and setting: in the case of `Cc1cc(-c2n[nH]c3ncc(-c4ccc(N5CCN(CC6CCN(c7ccc(N8CCC(=O)NC8=O)cc7)CC6)CC5)cc4)cc23)c(F)cc1[C@@H](C)NC(=O)c1noc(C(C)(C)C)n1` [Example 44, (R)-5-(tert-butyl)-N-(1-(4-(5-(4-(4-((1-(4-(2,4-dioxotetrahydropyrimidin-1(2H)-yl)phenyl)piperidin-4-yl)methyl)piperazin-1-yl)phenyl)-1H-pyrazolo[3,4-b]pyridin-3-yl)-5-fluoro-2-methylphenyl)ethyl)-1,2,4-oxadiazole-3-carboxamide] it was 6.02 nM. On the same count and under the same terms, in the case of `Cc1c([C@@H](C)NC(=O)c2nc(C(C)(C)C)no2)ccc(-c2n[nH]c3ncc(-c4ccc(N5CCN(CC6CCN(c7ccc(N8CCC(=O)NC8=O)cc7)CC6)CC5)cc4)cc23)c1F` [Example 45, (R)-3-(tert-butyl)-N-(1-(4-(5-(4-(4-((1-(4-(2,4-dioxotetrahydropyrimidin-1(2H)-yl)phenyl)piperidin-4-yl)methyl)piperazin-1-yl)phenyl)-1H-pyrazolo[3,4-b]pyridin-3-yl)-3-fluoro-2-methylphenyl)ethyl)-1,2,4-oxadiazole-5-carboxamide] it was 2.15 nM; in that of `Cc1cc(-c2n[nH]c3ncc(-c4ccc(N5CCN(CC6CCN(c7ccc(N8CCC(=O)NC8=O)cc7)CC6)CC5)cc4)cc23)c(F)cc1[C@@H](C)NC(=O)c1nc(C(C)(C)C)no1` [Example 46, (R)-3-(tert-butyl)-N-(1-(4-(5-(4-(4-((1-(4-(2,4-dioxotetrahydropyrimidin-1(2H)-yl)phenyl)piperidin-4-yl)methyl)piperazin-1-yl)phenyl)-1H-pyrazolo[3,4-b]pyridin-3-yl)-5-fluoro-2-methylphenyl)ethyl)-1,2,4-oxadiazole-5-carboxamide], 5.13 nM.

For the molecule `Cc1cc(-c2n[nH]c3ncc(-c4ccc(N5CCN(CCC6CCN(c7ccc(C8CCC(=O)NC8=O)c(F)c7)CC6)CC5)cc4)cc23)ccc1CNC(=O)c1noc(C(C)(C)C)n1` (centres unmarked) [Example 48, 5-(tert-butyl)-N-(4-(5-(4-(4-(2-(1-(4-(2,6-dioxopiperidin-3-yl)-3-fluorophenyl)piperidin-4-yl)ethyl)piperazin-1-yl)phenyl)-1H-pyrazolo[3,4-b]pyridin-3-yl)-2-methylbenzyl)-1,2,4-oxadiazole-3-carboxamide], the DC50 was 4.76 nM.

In the case of `COc1cc(N2CCC(CN3CCN(c4ccc(-c5cnc6[nH]nc(-c7ccc(CNC(=O)c8noc(C(C)(C)C)n8)c(C)c7)c6c5)cc4)CC3)CC2)ccc1N1CCC(=O)NC1=O` [Example 50, 5-(tert-butyl)-N-(4-(5-(4-(4-((1-(4-(2,4-dioxotetrahydropyrimidin-1(2H)-yl)-3-methoxyphenyl)piperidin-4-yl)methyl)piperazin-1-yl)phenyl)-1H-pyrazolo[3,4-b]pyridin-3-yl)-2-methylbenzyl)-1,2,4-oxadiazole-3-carboxamide], it took 4.65 nM to reach half-maximal degradation (DC50).

With `Cc1cc(-c2n[nH]c3ncc(-c4ccc(N5CCN(CCc6ccc(C7CCC(=O)NC7=O)c(Cl)c6)CC5)cc4)cc23)ccc1CNC(=O)c1noc(C(C)(C)C)n1` (centres unmarked) [Example 51, 5-(tert-butyl)-N-(4-(5-(4-(4-(3-chloro-4-(2,6-dioxopiperidin-3-yl)phenethyl)piperazin-1-yl)phenyl)-1H-pyrazolo[3,4-b]pyridin-3-yl)-2-methylbenzyl)-1,2,4-oxadiazole-3-carboxamide], it took 3.83 nM to reach half-maximal degradation (DC50). On the same count and under the same terms, in the case of `Cc1cc(-c2n[nH]c3ncc(-c4ccc(C5CCN(CC6CCN(c7ccc(N8CCC(=O)NC8=O)cc7)CC6)CC5)nc4)cc23)ccc1CNC(=O)c1noc(C(C)(C)C)n1` [Example 63, 5-(tert-butyl)-N-(4-(5-(6-(1-((1-(4-(2,4-dioxotetrahydropyrimidin-1(2H)-yl)phenyl)piperidin-4-yl)methyl)piperidin-4-yl)pyridin-3-yl)-1H-pyrazolo[3,4-b]pyridin-3-yl)-2-methylbenzyl)-1,2,4-oxadiazole-3-carboxamide] it was 4.22 nM; in that of `Cc1cc(-c2n[nH]c3ncc(-c4ccc(N5CCN(CC6CCN(c7ccc(N8CCC(=O)NC8=O)cc7)CC6)CC5)nc4)cc23)ccc1CNC(=O)c1noc(C(C)(C)C)n1` [Example 65, 5-(tert-butyl)-N-(4-(5-(6-(4-((1-(4-(2,4-dioxotetrahydropyrimidin-1(2H)-yl)phenyl)piperidin-4-yl)methyl)piperazin-1-yl)pyridin-3-yl)-1H-pyrazolo[3,4-b]pyridin-3-yl)-2-methylbenzyl)-1,2,4-oxadiazole-3-carboxamide], 7.67 nM.

The assay is the same for the next values; noted with them: TMD8, maximum percentage of inhibition (degradation).
In general, Dmax refers to the greatest extent of degradation seen. On to `Cc1cc(-c2n[nH]c3ncc(-c4ccc(N5CCN(CCc6ccc(C7CCC(=O)NC7=O)cc6)CC5)cc4)cc23)ccc1[C@@H](C)NC(=O)c1noc(C(C)(C)C)n1` (stereo partly drawn) [Example 35, 5-(tert-butyl)-N-((1R)-1-(4-(5-(4-(4-(4-(2,6-dioxopiperidin-3-yl)phenethyl)piperazin-1-yl)phenyl)-1H-pyrazolo[3,4-b]pyridin-3-yl)-2-methylphenyl)ethyl)-1,2,4-oxadiazole-3-carboxamide], for which the Dmax turned out to be 93%.

`Cc1cc(-c2n[nH]c3ncc(-c4ccc(N5CCN(CCc6ccc(C7CCC(=O)NC7=O)c(F)c6)CC5)cc4)cc23)ccc1[C@@H](C)NC(=O)c1noc(C(C)(C)C)n1` (stereo partly drawn) [Example 36, 5-(tert-butyl)-N-((1R)-1-(4-(5-(4-(4-(4-(2,6-dioxopiperidin-3-yl)-3-fluorophenethyl)piperazin-1-yl)phenyl)-1H-pyrazolo[3,4-b]pyridin-3-yl)-2-methylphenyl)ethyl)-1,2,4-oxadiazole-3-carboxamide] gave a Dmax of 98.3%.

Molecule `Cc1cc(-c2n[nH]c3ncc(-c4ccc(N5CCN(CC6CCN(c7ccc(N8CCC(=O)NC8=O)cc7)CC6)CC5)cc4)cc23)ccc1[C@@H](C)NC(=O)c1noc(C(C)(C)C)n1` [Example 37, (R)-5-(tert-butyl)-N-(1-(4-(5-(4-(4-((1-(4-(2,4-dioxotetrahydropyrimidin-1(2H)-yl)phenyl)piperidin-4-yl)methyl)piperazin-1-yl)phenyl)-1H-pyrazolo[3,4-b]pyridin-3-yl)-2-methylphenyl)ethyl)-1,2,4-oxadiazole-3-carboxamide] came in with a Dmax of 93.4%.
